Source: patent US12077503B2, “Substituted cyclic amides and their use as herbicides” (FMC CORPORATION, priority 2015, dated 2024)
Like-named read-outs stand apart in the source and are kept apart here.

Legend:
Type in all cases: in vivo
[1] = tested on: ragweed (common ragweed, Ambrosia elatior); assay: Test A preemergence; settings: Ambrosia artemisiifolia, pre-emergence, 240 h; for pest or weed control at 125 g/ha: 125 g ai/ha, visual rating after approx. 10 d, 0 to 100 scale where 0 is no effect and 100 is complete control; for pest or weed control at 500 g/ha: 500 g ai/ha
Procedure, shortened: (§1)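 Visual injury scores from 0, no effect, to 100, complete control, were assigned versus untreated controls roughly 10 d after treatment in the greenhouse. Test chemicals, formulated with surfactant in a non-phytotoxic solvent, were applied to planted seeds as a preemergence soil spray or postemergence to one- to two-leaf plants 2 to 10 cm tall, in loam–sand soil.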

[2] = tested on: barnyardgrass (Echinochloa crus-galli); assay: Test A preemergence; settings: Echinochloa crus-galli, pre-emergence, 240 h; for pest or weed control at 125 g/ha: 125 g ai/ha; for pest or weed control at 500 g/ha: 500 g ai/ha
Procedure, shortened: as §1

Kochia (Kochia scoparia) = assay: Test A preemergence; settings: Bassia scoparia, pre-emergence, 240 h; for pest or weed control at 125 g/ha: 125 g ai/ha, visual rating after approx. 10 d, 0 to 100 scale where 0 is no effect and 100 is complete control; for pest or weed control at 500 g/ha: 500 g ai/ha
Procedure, shortened: as §1

[3] = tested on: pigweed (Amaranthus retroflexus); assay: Test A preemergence; settings: Amaranthus retroflexus, pre-emergence, 240 h; for pest or weed control at 125 g/ha: 125 g ai/ha; for pest or weed control at 500 g/ha: 500 g ai/ha
[4] = tested on: giant foxtail (Setaria faberii); assay: Test A preemergence; settings: Setaria faberi, pre-emergence, 240 h; for pest or weed control at 125 g/ha: 125 g ai/ha; for pest or weed control at 500 g/ha: 500 g ai/ha
Procedure, shortened: as §1

[5] = tested on: ryegrass, Italian (Italian ryegrass, Lolium multiflorum); assay: Test A preemergence; settings: Lolium multiflorum, pre-emergence, 240 h; for pest or weed control at 125 g/ha: 125 g ai/ha, visual rating after approx. 10 d, 0 to 100 scale where 0 is no effect and 100 is complete control; for pest or weed control at 500 g/ha: 500 g ai/ha
Procedure, shortened: as §1

[6] = tested on: sedge, umbrella (small-flower umbrella sedge, Cyperus difformis); assay: Test B flooded paddy test; settings: Cyperus difformis, Flood, 250 g ai/ha; scale of 0 to 100 where 0 is no effect and 100 is complete control; read-out: Sedge, Umbrella plant response rating
Procedure, shortened: (§2)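 Rating scale 0–100 (visual, vs untreated controls) after a 13–15 d greenhouse period; application to the flood layer, 3 cm above soil and maintained; plants at 2-leaf stage when treated.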

[7] = tested on: barnyardgrass (Echinochloa crus-galli); assay: Test B flooded paddy test; settings: Echinochloa crus-galli, Flood, 250 g ai/ha; scale of 0 to 100 where 0 is no effect and 100 is complete control; read-out: Barnyardgrass plant response rating
Procedure, shortened: as §2

rice (Oryra sativa) = assay: Test B flooded paddy test; settings: Oryza sativa, Flood, 250 g ai/ha; scale of 0 to 100 where 0 is no effect and 100 is complete control; read-out: Rice plant response rating
Procedure, shortened: as §2

[8] = tested on: ducksalad (Heteranthera limosa); assay: Test B flooded paddy test; settings: Heteranthera limosa, Flood, 250 g ai/ha; scale of 0 to 100 where 0 is no effect and 100 is complete control; read-out: Ducksalad plant response rating
Procedure, shortened: as §2

[9] = tested on: wheat (Triticum aestivum); assay: Test A postemergence; settings: Triticum aestivum, post-emergence, 240 h; for plant injury at 125 g/ha: 125 g ai/ha; for plant injury at 500 g/ha: 500 g ai/ha, visual injury, approx. 10 d
Procedure, shortened: as §1

[10] = tested on: blackgrass (Alopecurus myosuroides); assay: Test A postemergence; settings: Alopecurus myosuroides, post-emergence, 240 h, 125 g ai/ha, postemergence; visual injury after approximately 10 d; 0 to 100 scale (0 no effect, 100 complete control); read-out: Plant response rating, Blackgrass
Procedure, shortened: as §1

[11] = tested on: pigweed (Amaranthus retroflexus); assay: Test A postemergence; settings: Amaranthus retroflexus, post-emergence, 240 h; for pest or weed control at 125 g/ha: 125 g ai/ha; for pest or weed control at 500 g/ha: 500 g ai/ha, visual injury, approx. 10 d
Procedure, shortened: as §1

[12] = tested on: giant foxtail (Setaria faberii); assay: Test A postemergence; settings: Setaria faberi, post-emergence, 240 h; for pest or weed control at 125 g/ha: 125 g ai/ha; for pest or weed control at 500 g/ha: 500 g ai/ha, visual injury, approx. 10 d
Procedure, shortened: as §1

[13] = tested on: ryegrass, Italian (Italian ryegrass, Lolium multiflorum); assay: Test A postemergence; settings: Lolium multiflorum, post-emergence, 240 h, 125 g ai/ha, postemergence; visual injury after approximately 10 d; 0 to 100 scale (0 no effect, 100 complete control); read-out: Plant response rating, Ryegrass, Italian
Procedure, shortened: as §1

[14] = preemergence, read-out: Plant response rating, Ragweed
[15] = preemergence, visual rating after approx. 10 d, 0 to 100 scale where 0 is no effect and 100 is complete control, read-out: Plant response rating, Barnyardgrass
[16] = preemergence, read-out: Plant response rating, Kochia
[17] = preemergence, visual rating after approx. 10 d, 0 to 100 scale where 0 is no effect and 100 is complete control, read-out: Plant response rating, Pigweed
[18] = preemergence, visual rating after approx. 10 d, 0 to 100 scale where 0 is no effect and 100 is complete control, read-out: Plant response rating, Foxtail, Giant
[19] = preemergence, read-out: Plant response rating, Ryegrass, Italian
[20] = postemergence, visual injury after approximately 10 d, 0 to 100 scale (0 no effect, 100 complete control), read-out: Plant response rating, Pigweed
[21] = postemergence, visual injury after approximately 10 d, 0 to 100 scale (0 no effect, 100 complete control), read-out: Plant response rating, Foxtail, Giant
[22] = preemergence, 0 to 100 scale (0 no effect, 100 complete control), read-out: Plant response rating, Barnyardgrass
[23] = Preemergence, 0 to 100 scale (0 no effect, 100 complete control), read-out: Plant response rating, Barnyardgrass
[24] = preemergence, 0 to 100 scale (0 no effect, 100 complete control), read-out: Plant response rating, Pigweed
[25] = Preemergence, 0 to 100 scale (0 no effect, 100 complete control), read-out: Plant response rating, Pigweed
[26] = preemergence, 0 to 100 scale (0 no effect, 100 complete control), read-out: Plant response rating, Foxtail, Giant
[27] = Preemergence, 0 to 100 scale (0 no effect, 100 complete control), read-out: Plant response rating, Foxtail, Giant
[28] = Postemergence, visual rating about 10 d after treatment, read-out: Wheat plant response rating (0 to 100 scale)
[29] = Postemergence, 0 to 100 scale (0 no effect, 100 complete control), read-out: Plant response rating, Wheat
[30] = Postemergence, visual rating about 10 d after treatment, read-out: Pigweed plant response rating (0 to 100 scale)
[31] = Postemergence, 0 to 100 scale (0 no effect, 100 complete control), read-out: Plant response rating, Pigweed
[32] = Postemergence, visual rating about 10 d after treatment, read-out: Foxtail, Giant plant response rating (0 to 100 scale)
[33] = Postemergence, 0 to 100 scale (0 no effect, 100 complete control), read-out: Plant response rating, Foxtail, Giant

Compound Cc1ccc([C@H]2CN(C)C(=O)[C@@H]2C(=O)Nc2cccc(F)c2C)cc1C [Compound 732] has a pest or weed control at 125 g/ha [1, 14] of 0%, a pest or weed control at 500 g/ha ([1]; preemergence, 0 to 100 scale, 0 = no effect, 100 = complete control, read-out: Plant response rating, Ragweed) of 70% and a pest or weed control at 125 g/ha [2, 15] of 90%. For the same compound, the pest or weed control at 500 g/ha ([2]; preemergence, 0 to 100 scale, 0 = no effect, 100 = complete control, read-out: Plant response rating, Barnyardgrass) was 100%, the pest or weed control at 125 g/ha (Kochia (Kochia scoparia); [16]) was 70% and the pest or weed control at 500 g/ha (Kochia (Kochia scoparia); preemergence, 0 to 100 scale, 0 = no effect, 100 = complete control, read-out: Plant response rating, Kochia) was 90%. For the same compound, the pest or weed control at 125 g/ha [3, 17] was 0%, the pest or weed control at 500 g/ha ([3]; preemergence, 0 to 100 scale, 0 = no effect, 100 = complete control, read-out: Plant response rating, Pigweed) was 20% and the pest or weed control at 125 g/ha [4, 18] was 90%. It also gave a pest or weed control at 500 g/ha ([4]; preemergence, 0 to 100 scale, 0 = no effect, 100 = complete control, read-out: Plant response rating, Foxtail, Giant) of 90%, a pest or weed control at 125 g/ha [5, 19] of 80% and a pest or weed control at 500 g/ha ([5]; preemergence, 0 to 100 scale, 0 = no effect, 100 = complete control, read-out: Plant response rating, Ryegrass, Italian) of 80%. For the same compound, the pest or weed control at 250 g/ha [6] was 0%, the pest or weed control at 250 g/ha [7] was 45% and the pest or weed control at 250 g/ha (rice (Oryra sativa)) was 0%. For the same compound, the pest or weed control at 250 g/ha [8] was 100%, the plant injury at 125 g/ha ([9]; postemergence, visual injury after approximately 10 d, 0 to 100 scale (0 no effect, 100 complete control), read-out: Plant response rating, Wheat) was 80% and the pest or weed control at 125 g/ha [10] was 50%. It also gave a pest or weed control at 125 g/ha [11, 20] of 0%, a pest or weed control at 125 g/ha [12, 21] of 90% and a pest or weed control at 125 g/ha [13] of 50%.

In the case of O=C1NCC(c2ccccc2)C1C(=O)Nc1ccc(C(F)(F)F)cc1 (centres unmarked) [Compound 1362], the pest or weed control at 500 g/ha [2, 22] is reported as 0%, the pest or weed control at 125 g/ha [2, 23] is reported as 0% and the pest or weed control at 500 g/ha [3, 24] is reported as 0%. It also gave a pest or weed control at 125 g/ha [3, 25] of 0%, a pest or weed control at 500 g/ha [4, 26] of 0% and a pest or weed control at 125 g/ha [4, 27] of 0%. For the same compound, the plant injury at 125 g/ha [9, 28] was 0%, the plant injury at 500 g/ha [9, 29] was 0% and the pest or weed control at 125 g/ha [11, 30] was 0%. It also gave a pest or weed control at 500 g/ha [11, 31] of 0%, a pest or weed control at 125 g/ha [12, 32] of 0% and a pest or weed control at 500 g/ha [12, 33] of 0%.

Compound O=C1NCC(c2ccccc2)C1C(=O)Nc1cc(F)ccc1F (centres unmarked) [Compound 1359] has a pest or weed control at 500 g/ha [2, 22] of 0%, a pest or weed control at 125 g/ha [2, 23] of 0% and a pest or weed control at 500 g/ha [3, 24] of 0%. For the same compound, the pest or weed control at 125 g/ha [3, 25] was 0%, the pest or weed control at 500 g/ha [4, 26] was 0% and the pest or weed control at 125 g/ha [4, 27] was 0%. It also gave a plant injury at 125 g/ha [9, 28] of 0%, a plant injury at 500 g/ha [9, 29] of 0% and a pest or weed control at 125 g/ha [11, 30] of 0%. It also gave a pest or weed control at 500 g/ha [11, 31] of 0%, a pest or weed control at 125 g/ha [12, 32] of 0% and a pest or weed control at 500 g/ha [12, 33] of 0%.

Work on Cc1cc([C@H]2CNC(=O)[C@@H]2C(=O)Nc2ccc(F)cc2F)ccc1Cl [Compound 791] yielded a pest or weed control at 125 g/ha [1, 14] of 0%, a pest or weed control at 500 g/ha ([1]; Preemergence, visual injury vs untreated controls after approximately 10 d, read-out: Ragweed plant response rating (0 to 100 scale where 0 is no effect and 100 is complete control)) of 40% and a pest or weed control at 125 g/ha [2, 15] of 90%. It also gave a pest or weed control at 500 g/ha ([2]; Preemergence, visual injury vs untreated controls after approximately 10 d, read-out: Barnyardgrass plant response rating (0 to 100 scale where 0 is no effect and 100 is complete control)) of 90%, a pest or weed control at 125 g/ha (Kochia (Kochia scoparia); [16]) of 50% and a pest or weed control at 500 g/ha (Kochia (Kochia scoparia); Preemergence, visual injury vs untreated controls after approximately 10 d, read-out: Kochia plant response rating (0 to 100 scale where 0 is no effect and 100 is complete control)) of 60%. The pest or weed control at 125 g/ha [3, 17] was 0%, the pest or weed control at 500 g/ha ([3]; Preemergence, visual injury vs untreated controls after approximately 10 d, read-out: Pigweed plant response rating (0 to 100 scale where 0 is no effect and 100 is complete control)) was 0% and the pest or weed control at 125 g/ha [4, 18] was 50%. For the same compound, the pest or weed control at 500 g/ha ([4]; Preemergence, visual injury vs untreated controls after approximately 10 d, read-out: Foxtail, Giant plant response rating (0 to 100 scale where 0 is no effect and 100 is complete control)) was 90%, the pest or weed control at 125 g/ha [5, 19] was 0% and the pest or weed control at 500 g/ha ([5]; Preemergence, visual injury vs untreated controls after approximately 10 d, read-out: Ryegrass, Italian plant response rating (0 to 100 scale where 0 is no effect and 100 is complete control)) was 20%. For the same compound, the pest or weed control at 250 g/ha [6] was 0%, the pest or weed control at 250 g/ha [7] was 0% and the pest or weed control at 250 g/ha (rice (Oryra sativa)) was 0%. The pest or weed control at 250 g/ha [8] was 100%, the pest or weed control at 125 g/ha [10] was 0% and the pest or weed control at 125 g/ha [11, 20] was 0%. It also gave a pest or weed control at 125 g/ha [12, 21] of 30% and a pest or weed control at 125 g/ha [13] of 0%.
